Assay results reported in US20230303549A1, “SUBSTITUTED HETEROARYLOXYPYRIDINES, THE SALTS THEREOF AND THEIR USE AS HERBICIDAL AGENTS” (Bayer Aktiengesellschaft, priority 2020, published 2023).

Key:
Assay type in all cases: in vivo
[1] = system: Abutilon theophrasti (ABUTH); assay: Pre-emergence herbicide efficacy at 320 g/ha, greenhouse pot test; details: visual scoring vs untreated control after about 3 weeks
From the text: (§1) Seeds of mono- and dicotyledonous weed plants were placed in plastic pots in sandy loam soil (doubly sown with in each case one species of mono- or dicotyledonous weed plants per pot) and covered with soil. The compounds of the invention, formulated in the form of wettable powders (WP) or as emulsion concentrates (EC), were then applied onto the surface of the covering soil as aqueous suspension or emulsion with addition of 0.5% additive at a water application rate of 600 liters per hectare (converted). After the treatment, the pots were placed in a greenhouse and kept under good growth conditions for the test plants. After about 3 weeks, the effect of the preparations was scored visually in comparison with untreated controls as percentages. For example, 100% activity=the plants have died, 0% activity=like control plants. Tables C1 to C12 below show the effects of selected compounds of the general formula (I) according to Table 1 on various harmful plants and an application rate corresponding to 320 g/ha, which were obtained by the experimental procedure mentioned above.

[2] = system: Amaranthus retroflexus (AMARE); assay: as above; details: visual scoring vs untreated control after about 3 weeks
From the text: as §1

Stellaria media (STEME) [3] = assay: as above; details: visual scoring vs untreated control after about 3 weeks
From the text: as §1

Poa annua (POAAN) [4] = assay: as above; details: visual scoring vs untreated control after about 3 weeks
From the text: as §1

[5] = system: Amaranthus retroflexus (AMARE); assay: Post-emergence herbicidal efficacy at 320 g/ha, greenhouse pot test; details: visual rating vs untreated control after about 3 weeks
Protocol: (§2) Seeds of mono- and dicotyledonous weed plants were placed in plastic pots in sandy loam soil (doubly sown with in each case one species of mono- or dicotyledonous weed plants per pot), covered with soil and cultivated in a greenhouse under controlled growth conditions. 2 to 3 weeks after sowing, the test plants were treated at the one-leaf stage. The compounds of the invention, formulated in the form of wettable powders (WP) or as emulsion concentrates (EC), were applied onto the green parts of the plants as aqueous suspension or emulsion with addition of 0.5% additive at a water application rate of 600 liters per hectare (converted). After the test plants had been kept in the greenhouse under optimum growth conditions for about 3 weeks, the activity of the preparations was rated visually in comparison to untreated controls. For example, 100% activity=the plants have died, 0% activity=like control plants. Tables […] 11 below show the effects of selected compounds of the general formula (I) according to Table 1 on various harmful plants and an application rate corresponding to 320 g/ha, which were obtained by the experimental procedure mentioned above.

Bassia scoparia (KCHSC) = assay: Pre-emergence herbicide efficacy at 320 g/ha, greenhouse pot test; details: dosage 1280 g/ha in Table C6, visual scoring after about 3 weeks
From the text: as §1

[6] = system: Matricaria inodora (MATIN); assay: as above; details: visual scoring vs untreated control after about 3 weeks
From the text: as §1

Stellaria media (STEME) [7] = assay: Post-emergence herbicidal efficacy at 320 g/ha, greenhouse pot test; details: visual rating vs untreated control after about 3 weeks
Protocol: as §2

Poa annua (POAAN) [8] = assay: as above; details: visual rating vs untreated control after about 3 weeks
Protocol: as §2

Veronica persica (VERPE) [9] = assay: as above; details: 320 g/ha, visual rating vs untreated control after about 3 weeks
Protocol: as §2

[10] = system: Echinochloa crus-galli (ECHCG); assay: Pre-emergence herbicide efficacy at 320 g/ha, greenhouse pot test; details: visual scoring vs untreated control after about 3 weeks
From the text: as §1

[11] = system: Abutilon theophrasti (ABUTH); assay: Post-emergence herbicidal efficacy at 320 g/ha, greenhouse pot test; details: visual rating vs untreated control after about 3 weeks
Protocol: as §2

Veronica persica (VERPE) [12] = assay: Pre-emergence herbicide efficacy at 320 g/ha, greenhouse pot test; details: visual scoring vs untreated control after about 3 weeks
From the text: as §1

SMILES | Pre-emergence efficacy against Abutilon theophrasti (ABUTH) [1] | Pre-emergence efficacy against Amaranthus retroflexus (AMARE) [2] | Pre-emergence efficacy against Stellaria media (STEME) (Stellaria media (STEME) [3]) | Pre-emergence efficacy against Poa annua (POAAN) (Poa annua (POAAN) [4]) | Post-emergence efficacy against Amaranthus retroflexus (AMARE) [5] | Pre-emergence efficacy against Bassia scoparia (KCHSC) (Bassia scoparia (KCHSC)) | Pre-emergence efficacy against Matricaria inodora (MATIN) [6] | Post-emergence action against Stellaria media (STEME) (Stellaria media (STEME) [7]) | Post-emergence efficacy against Poa annua (POAAN) (Poa annua (POAAN) [8]) | Post-emergence efficacy against Veronica persica (VERPE) (Veronica persica (VERPE) [9]) | Pre-emergence efficacy against Echinochloa crus-galli (ECHCG) [10] | Post-emergence efficacy against Abutilon theophrasti (ABUTH) [11] | Pre-emergence efficacy against Veronica persica (VERPE) (Veronica persica (VERPE) [12])
Cc1ccc(-c2cc(C(F)F)on2)c(Oc2ncc(Cl)cn2)n1 [Example I-12] | 90% | 100% | 90% | 100% |  |  |  |  |  |  |  |  | 
Cc1ccc(-c2cc(C(F)F)on2)c(Oc2ncc(F)cn2)n1 [Example I-13] |  |  |  |  | 90% |  |  |  |  |  |  |  | 
Cc1cc(C)c(-c2cc(C(F)F)no2)c(Oc2ncc(C#N)cn2)n1 [Example I-46] | 90% | 90% | 90% |  | 100% | 90% | 100% | 100% | 90% | 100% |  |  | 
Cc1cc(C)c(-c2cc(C3CC3)no2)c(Oc2ncc(Cl)cc2F)n1 [Example I-180] |  | 100% | 100% | 100% |  |  | 100% | 100% |  | 90% |  |  | 
Cc1cc(C)c(-c2cc(CC3CC3)no2)c(Oc2ncc(F)cn2)n1 [Example I-200] | 90% | 100% | 100% | 90% | 90% |  | 90% | 90% |  | 90% | 90% |  | 
Cc1cc(C)c(-c2cc(CC3CC3)no2)c(Oc2ncc(Cl)cn2)n1 [Example I-201] | 90% | 90% | 90% | 100% |  | 90% |  | 90% |  | 90% |  | 90% | 
Cc1cc(C)c(-c2cc(CC3CC3)no2)c(Oc2ncc(Cl)cc2F)n1 [Example I-202] |  | 90% | 100% |  |  |  |  | 90% | 100% |  |  |  | 
Cc1cc(C)c(-n2cccn2)c(Oc2ncc(F)cn2)n1 [Example I-244] |  |  |  |  |  | 90% |  |  |  |  |  |  | 90%
Cc1cc(C)c(-n2cccn2)c(Oc2ncc(Cl)cn2)n1 [Example I-245] | 90% | 100% | 100% |  |  | 100% | 90% |  |  |  |  |  | 
Cc1cc(C)c(-n2cc(Br)cn2)c(Oc2ncc(Cl)cn2)n1 [Example I-278] | 100% |  | 100% |  | 100% | 100% |  | 90% |  | 90% | 100% |  | 100%
